Data on 7 compounds can be found in article PMC12195695, “Multifaceted Biological Activity of Rutin, Quercetin, and Quercetin’s Glucosides” (Molecules, 2025).

Data set [1] can be described thus: Cyclic voltammetry: oxidation potential and antioxidant activity vs Trolox. The following applies: vs. Ag/AgCl, 50 mM acetate-acetic buffer (pH 5.5) in 80% methanol, scan rate 100 mV s^-1, n = 6. The class given is physicochemical.
Assay in data set [2]: as above
The class given is physicochemical. The following applies: for Antioxidant power class based on first oxidation potential: classification according to Blasco et al. [51]; for Antioxidant Activity: cyclic voltammetry, area under anodic wave, 0.1 mM compound, Trolox regression, n = 6. The method, then:
A galvanostat G 750 (Gamry Ins., Warminster, PA, USA) with a conventional three-electrode system was used for the cyclic voltammetric experiments, with Ru, Q, Ru, Q4′G, Q3G, and Q34′G (0.1 mM in 80% methanol) or Trolox solutions (0.1–2.5 mM) mixed with 0.2 M sodium acetate–acetic buffer (pH 4.5 in 80% methanol) at a ratio of 1:1 (v/v), as has previously been described in detail. The cyclic voltammograms were acquired in the range of −100 to 1300 mV at a scanning rate of 100 mV s^−1.

The test system of data set [3] is advanced glycation endproduct (AGE) formation in BSA/glucose model system. In words: Inhibition of AGE formation, BSA/glucose model system. In kind it is biochemical. The note with it: fluorescence, linear regression, read-out: IC50 against AGE formation, BSA/Glucose Model System. The method, then:
(§1) The positive control aminoguanidine and standards of rutin, quercetin, and quercetin’s glucosides were dissolved in DMSO and then in a phosphate buffer. The inhibitory activity against the formation of AGEs was analyzed in BSA/glucose and BSA/MGO model systems, as reported by Thornalley, and the fluorescent intensity was measured. The percentage of inhibition of AGEs was calculated from the obtained fluorescence of the test solution with or without inhibitors.

Data set [4] has as its target T1, angiotensin-converting enzymes (ACEs) from porcine kidneys (EC 3.4.15.1) (Sus scrofa, UniProt F1RRW5).
T1 construct: angiotensin-converting enzymes (ACEs) from porcine kidneys (EC 3.4.15.1); purchased Sigma (Sigma Chemical Company, Saint Louis, MO, USA); host or cells: porcine kidney
T1 sequence (F1RRW5 34-1309): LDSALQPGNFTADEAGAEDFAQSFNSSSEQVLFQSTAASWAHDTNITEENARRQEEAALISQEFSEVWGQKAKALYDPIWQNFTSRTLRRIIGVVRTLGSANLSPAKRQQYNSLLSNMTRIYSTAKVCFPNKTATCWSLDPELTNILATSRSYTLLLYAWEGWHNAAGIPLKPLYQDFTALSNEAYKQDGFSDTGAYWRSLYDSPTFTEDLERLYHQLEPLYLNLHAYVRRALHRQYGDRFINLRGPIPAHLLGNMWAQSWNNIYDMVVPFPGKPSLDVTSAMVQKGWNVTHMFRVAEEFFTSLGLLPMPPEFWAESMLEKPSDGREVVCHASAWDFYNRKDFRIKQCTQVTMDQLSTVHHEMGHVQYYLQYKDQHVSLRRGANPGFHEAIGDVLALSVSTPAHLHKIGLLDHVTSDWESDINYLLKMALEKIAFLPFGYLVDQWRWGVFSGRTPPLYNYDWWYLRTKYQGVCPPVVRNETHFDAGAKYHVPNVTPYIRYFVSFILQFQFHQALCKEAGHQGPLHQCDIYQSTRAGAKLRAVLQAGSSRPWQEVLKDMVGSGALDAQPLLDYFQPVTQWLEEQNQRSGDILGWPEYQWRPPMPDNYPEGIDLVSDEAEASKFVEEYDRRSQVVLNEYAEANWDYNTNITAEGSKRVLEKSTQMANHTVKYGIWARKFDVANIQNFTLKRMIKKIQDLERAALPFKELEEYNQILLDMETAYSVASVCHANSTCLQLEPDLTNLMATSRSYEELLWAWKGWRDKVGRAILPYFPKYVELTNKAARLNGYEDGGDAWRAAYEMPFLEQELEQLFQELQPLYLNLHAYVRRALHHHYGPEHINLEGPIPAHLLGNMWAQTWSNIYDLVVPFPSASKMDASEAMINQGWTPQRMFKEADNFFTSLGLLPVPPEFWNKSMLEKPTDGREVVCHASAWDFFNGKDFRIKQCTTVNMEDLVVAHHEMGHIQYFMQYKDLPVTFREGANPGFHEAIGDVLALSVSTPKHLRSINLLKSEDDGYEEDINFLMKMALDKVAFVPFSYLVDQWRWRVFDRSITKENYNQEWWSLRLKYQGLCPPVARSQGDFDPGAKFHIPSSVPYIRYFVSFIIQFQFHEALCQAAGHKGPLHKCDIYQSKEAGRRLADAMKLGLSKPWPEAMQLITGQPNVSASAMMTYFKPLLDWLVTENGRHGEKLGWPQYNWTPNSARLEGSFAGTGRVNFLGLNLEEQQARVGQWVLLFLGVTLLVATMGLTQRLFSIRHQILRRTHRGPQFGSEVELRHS
In words: biochemical. As for the experimental part:
Standards of rutin, quercetin, and quercetin’s glucosides were dissolved in 80% methanol. Each standard was diluted to various concentrations using deionized water to determine its ACE inhibitory activity, expressed as an IC50 value. The ACE stock solution was prepared by dissolving enzyme in glycerol at 50% with Buffer A (protein concentration approximately 150 μg/mL), whereas the working solution was prepared by the dilution of the stock solution with Buffer B to make a protein concentration of approximately 7.5 μg/mL. The substrate stock solution was prepared by dissolving the whole content (50 mg) of Abz-Gly-Phe (NO2)-Pro (Bachem) in 10.33 mL of Buffer C (concentration approximately 10 mM), while the working solution was prepared by the dilution of the substrate stock solution with Buffer C to make a final Abz-Gly-Phe (NO2)-Pro concentration of approximately 0.45 mM. […] The angiotensin-converting enzyme (ACE) inhibitory activity assay was conducted according to the method of Sentandreu and Toldra. The fluorescence generated was measured using a Tecan Infinite M1000 PRO multiscan microplate fluorometer (TK Biotech, Warsaw, Poland). To calculate the % of inhibition of ACE, the following equation was used: […] = 100 − (ΔRFUsample ∗ 100/ΔRFUnegative control) where ΔRFU = RFUat time 30 − RFUat time 0.
The IC50 value, indicating the sample concentration at a 50% inhibition of ACE activity, was determined using linear regression analysis of logarithmic plots. At least 3 replicates for each standard solution were conducted. Results were expressed as IC50 values.

In data set [5] the test system is advanced glycation endproduct (AGE) formation in BSA/MGO model system. In words: Inhibition of AGE formation, BSA/MGO model system. The class given is biochemical. The following applies: for anti-AGE activity higher in comparison to Ru / anti-AGE activity higher in relation to AG: BSA/MGO model system; for IC50: BSA/MGO, fluorescence, linear regression, read-out: IC50 against AGE formation, BSA/MGO Model System. As for the experimental part: as §1

The test system of data set [6] is ACE. Details: method as in earlier work. The note with it: same fluorimetric method; ref 30 (Guerrero et al.); read-out: IC50 for ACE inhibition (literature); cited from earlier work.

Values joined by “and” are separate entries in the source; they are usually repeats but may differ in a detail not shown here. Identical values can stand only once. Counter-ions that a name gives are not always drawn. Like-named read-outs stand apart in the source and are kept apart here. Marks after values point to notes of the source that are not given here.

In the case of `O=c1c(O[C@@H]2O[C@H](CO)[C@@H](O)[C@H](O)[C@H]2O)c(-c2ccc(O[C@@H]3O[C@H](CO)[C@@H](O)[C@H](O)[C@H]3O)c(O)c2)oc2cc(O)cc(O)c12` [Q3,4′G, quercetin-3,4′-di-O-β-glucoside], the “First Oxidation Potential” value in data set [1] is 800 mV and 800 ± 7 ^a mV. Further, in data set [2], the “Antioxidant power class based on first oxidation potential” value (from here on “Antioxidant power class based”) is “low antioxidant power (a compound with a low antioxidant power (0.8 V < Ep < 1.3 V))” and the “Antioxidant Activity” value is listed as 1.07 ± 0.05 ^d mM Trolox. Besides, the IC50 in data set [3] was found to be 89 ± 5 µM. The compound also registered an IC50 in data set [4] of 115 ± 1.25 µM. Further, in data set [5], the “anti-AGE activity higher in comparison to Ru” value stood at 27%, the “anti-AGE activity higher in relation to AG” value is given as 64% and the IC50 worked out at 324 ± 19 µM.
`C[C@@H]1O[C@@H](OC[C@H]2O[C@@H](Oc3c(-c4ccc(O)c(O)c4)oc4cc(O)cc(O)c4c3=O)[C@H](O)[C@@H](O)[C@@H]2O)[C@H](O)[C@H](O)[C@H]1O` [Ru, quercetin-3-O-rutinoside]: in data set [1], the “First Oxidation Potential” value was 410 mV and 410 ± 5 ^c mV. The “Antioxidant power class based” value in data set [2] is given as “intermediate potentials (compounds with intermediate potentials (0.3 V < Ep < 0.8 V))”. In addition, the “Antioxidant Activity” value in data set [2] is given as 2.04 ± 0.07 ^c mM Trolox. The IC50 in data set [3] is 197 ± 8 µM; in data set [6], 64 µM; in data set [4] it was 121 ± 1.56 µM; in data set [5], 413 ± 24 µM.
On to `O=c1c(O)c(-c2ccc(O)c(O)c2)oc2cc(O)cc(O)c12` [Q, quercetin], for which the “First Oxidation Potential” value in data set [1] was 310 mV and 310 ± 4 ^e mV. Also, the “Antioxidant Activity” value in data set [2] is 3.92 ± 0.20 ^a mM Trolox. For the same compound, the IC50 in data set [3] is 243 ± 12 µM; in data set [6] it was 43 µM; in data set [4], 59.29 ± 0.48 µM; in data set [5] it was 466 ± 17 µM.
As for `O=c1c(O[C@@H]2O[C@H](CO)[C@@H](O)[C@H](O)[C@H]2O)c(-c2ccc(O)c(O)c2)oc2cc(O)cc(O)c12` [Compound Q3G, quercetin-3-O-β-glucoside], the “First Oxidation Potential” value in data set [1] is 390 mV and 390 ± 4 ^d mV. For the same compound, in data set [2], the “Antioxidant power class based” value is on record as “intermediate potentials (compounds with intermediate potentials (0.3 V < Ep < 0.8 V))” and the “Antioxidant Activity” value was 2.59 ± 0.04 ^b mM Trolox. For the same compound, the IC50 in data set [3] came out at 47 ± 3 µM. In addition, the IC50 in data set [4] was 135.2 ± 1.04 µM. In data set [5], the “anti-AGE activity higher in comparison to Ru” value stood at 6%, the “anti-AGE activity higher in relation to AG” value is 37% and the IC50 came out at 389 ± 22 µM.
Regarding `O=c1c(O)c(-c2ccc(O[C@@H]3O[C@H](CO)[C@@H](O)[C@H](O)[C@H]3O)c(O)c2)oc2cc(O)cc(O)c12` [Q4′G, quercetin-4′-O-β-glucoside], in data set [1], the “First Oxidation Potential” value was 482 mV and 482 ± 3 ^b mV. Besides, in data set [2], the “Antioxidant power class based” value is “intermediate potentials (compounds with intermediate potentials (0.3 V < Ep < 0.8 V))” and the “Antioxidant Activity” value is on record as 1.99 ± 0.09 ^c mM Trolox. The IC50 in data set [3] is 259 ± 16 µM. The compound also returned an IC50 in data set [4] of 143 ± 1.44 µM. Further, in data set [5], the “anti-AGE activity higher in comparison to Ru” value is 11%, the “anti-AGE activity higher in relation to AG” value was 44% and the IC50 is 370 ± 23 µM.
`N=C(N)NN` [AG, aminoguanidine hydrochloride, reference compound]: the IC50 in data set [3] stood at 432 ± 38 µM; in data set [5], 531 ± 28 µM.
Consider `N[C@@H](CCC(=O)N[C@@H](CS)C(=O)NCC(=O)O)C(=O)O` [GSH, reduced glutathione, reference compound], for which, in data set [4] (IC50 for ACE inhibition, concentration range 1.0-0.01 mM, linear regression, n = 6), the IC50 was found to be 41.7 µM.
